The record followed here is patent US11208404B2 (PERENNA PHARMACEUTICALS, INC., priority 2017, dated 2021).

Where two headings read alike, the source gives them in different places. Some results are limits rather than exact numbers.

The target in assay [1] is T1, ALCAT1 (Homo sapiens (Human), UniProt Q6UWP7). Description: In vitro acyltransferase assay for ALCAT1 inhibitors. It is filed as biochemical. As to conditions: for inhibition at 1 µM / % inh @ 1 μM: 1 μM compound; for inhibition at 1 µM / inhibition at 10 µM / % inh @ 1 μM: in vitro enzymatic assay; for inhibition at 10 µM: 10 μM compound; for IC50: ALCAT1 enzyme activity. In short, it runs like this: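 Membrane fractions from Sf9 cells expressing human ALCAT1 incubated 30 min at room temperature with 100 µM MLCL or LPG and 25 µM [14C]acyl-CoA (or 100 µM NBD-CoA) in 50 mM Tris/HCl pH 7.0.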
Target sequence in this assay (Q6UWP7 whole entry): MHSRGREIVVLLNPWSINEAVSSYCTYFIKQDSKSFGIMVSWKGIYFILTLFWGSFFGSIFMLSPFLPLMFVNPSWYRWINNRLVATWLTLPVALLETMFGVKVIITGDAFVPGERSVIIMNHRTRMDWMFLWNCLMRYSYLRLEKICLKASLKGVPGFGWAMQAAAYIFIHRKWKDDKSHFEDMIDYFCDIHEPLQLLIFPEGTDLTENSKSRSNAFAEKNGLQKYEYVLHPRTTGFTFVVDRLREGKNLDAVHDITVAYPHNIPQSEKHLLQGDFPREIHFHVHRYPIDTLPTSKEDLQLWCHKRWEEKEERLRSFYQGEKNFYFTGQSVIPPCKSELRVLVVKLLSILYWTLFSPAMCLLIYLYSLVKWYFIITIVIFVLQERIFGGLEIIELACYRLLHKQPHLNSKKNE

Assay [2] has as its target T1, ALCAT1. Briefly: Cell-based assay for ALCAT inhibitor compounds (H9C2 cells). The following applies: H9c2, 3 μM compound; H9C2 vector cell line and H9C2 with stable overexpression of ALCAT1. On the procedure:
The assay was performed on the H9C2 vector cell line and H9C2 with stable overexpression of ALCAT1. Materials used in the protocol were CoA, LPG, compounds, chloroform, methanol, 0.9% KCl, 6-well-plates, 1.5 mL tubes, DMEM, FBS, P/S and PBS.
Cells were seeded in 6-well-plates, 8×10^5 cells/well, and cultured at 37° C. in 5% CO2 overnight.
Cells were washed once with ice-cold PBS, collected in ice-cold PBS and centrifuged at 5000 rpm for 5 min at 4° C. 200 μL of chloroform: methanol (2:1) was added to the cell pellet, which was vortexed to suspend the cells and incubated at RT for 1 hr.
40 μL of 0.9% KCl was added and the sample was vortexed before centrifugation at 10000 rpm for 5 min at RT. The aqueous phase (upper layer) was discarded and the organic phase (lower layer) was loaded to a TLC plate (10 cm×20 cm), 40 μL/sample.
The plates were developed in chloroform: methanol: water (65:25:4) for about 30 min and scanned using a Typhoon Scanner. The bands intensity was analysed using ImageJ and the inhibition activity of the tested compounds was calculated.
Compound inhibitors for ALCAT1 enzyme were analyzed by an in vitro cell-based assay as detailed above.
Target sequence in this assay (Q6UWP7 whole entry, species assumed): as the sequence (Q6UWP7 whole entry) above

Where [3] appears, read: triplicates, GraphPad, read-out: IC50.

Regarding `CCOc1ccc(Br)cc1C(=O)Nc1cccc(-c2nnc(-c3ccco3)o2)c1` [Compound 118, 5-Bromo-2-ethoxy-N-(3-(5-(furan-2-yl)-1,3,4-oxadiazol-2-yl)phenyl)benzamide], the inhibition (in general, the relative decrease from the control value, in per cent) at 1 µM in assay [1] is 95%. The compound further came in with an inhibition at 10 µM in assay [1] of 100%. The half-inhibitory concentration (IC50) – broadly, the concentration that inhibits the measured activity by half – is less than 100 nM in assay [1] (read-out: IC50 values (upper bounds)) and 31 nM in assay [1] (setting [3]). The same compound showed an inhibition at 3 µM in assay [2] of 9%. In the case of `COc1c(Br)cc(Br)cc1C(=O)Nc1cccc(-c2nnc(-c3ccco3)o2)c1` [Compound 168, 3,5-Dibromo-N-(3-(5-(furan-2-yl)-1,3,4-oxadiazol-2-yl)phenyl)-2-methoxybenzamide], in assay [1], the inhibition at 1 µM came to 100% and 10 µM produced 100% inhibition. In assay [1] (setting [3]), the half-maximal inhibitory concentration (IC50) stood at 48 nM. This compound displayed an inhibition at 3 µM in assay [2] of 27%. For the compound `COc1ccc(Cl)cc1NC(=O)c1cccc(-c2nnc(-c3ccco3)o2)c1` [Compound 230], in assay [1], the “% inh @ 1 μM” value is reported as 89% and the inhibition at 1 µM came to 94%. Besides, the IC50 in assay [1] (setting [3]) was 410 nM. In the case of `O=C(Nc1cccc(-c2nnc(-c3ccco3)o2)c1)c1ccccc1OC(F)(F)F` [Compound 232], in assay [1], the “% inh @ 1 μM” value is given as 61/61% and the inhibition at 1 µM was 61%.

Regarding `O=C(Nc1cccc(-c2nnc(-c3ccco3)o2)c1)c1cccc(OC(F)(F)F)c1` [Compound 233], in assay [1], the “% inh @ 1 μM” value stood at 65% and 1 µM produced 68% inhibition. For `O=C(Nc1cccc(-c2nnc(-c3ccco3)o2)c1)c1cccc(C(F)(F)F)c1` [Compound 234], in that order: 42% and 46%. Consider `O=C(Nc1cccc(-c2nnc(-c3ccco3)o2)c1)c1cccnc1` [Compound 235], for which at 1 µM the inhibition in assay [1] was 12%. As to `O=C(Nc1cccc(-c2nnc(-c3ncco3)o2)c1)c1ccccc1F` [Compound 236], in assay [1], the “% inh @ 1 μM” value turned out to be 8% and the inhibition at 1 µM was found to be 7%. With `O=C(Nc1cccc(-c2nnc(-c3ccco3)o2)c1)c1ccncc1` [Compound 237], in assay [1], the “% inh @ 1 μM” value was found to be 46% and the inhibition at 1 µM stood at 35%. As for `O=C(Nc1cccc(-c2nnc(-c3ccco3)o2)c1)c1cccc(-c2ccccc2)c1` [Compound 238], in assay [1], the “% inh @ 1 μM” value is recorded as 23/23% and testing at 1 µM gave an inhibition of 23%. Regarding `CCc1ccccc1C(=O)Nc1cccc(-c2nnc(-c3ccco3)o2)c1` [Compound 240], in assay [1], the “% inh @ 1 μM” value was determined as 6% and the inhibition at 1 µM was found to be 12%. In the case of `CS(=O)(=O)c1ccccc1C(=O)Nc1cccc(-c2nnc(-c3ccco3)o2)c1` [Compound 248], in assay [1], the “% inh @ 1 μM” value was 50% and the inhibition at 1 µM stood at 30%.

Take `Cc1ccc(F)c(NC(=O)c2cccc(-c3nnc(-c4ccco4)o3)c2)c1` [Compound 271]: in assay [1], the “% inh @ 1 μM” value came out at 84% and testing at 1 µM gave an inhibition of 83%. In assay [1] (setting [3]), the IC50 turned out to be 780 nM.

Turning to `O=C(Nc1cccc(-c2nnc(-c3ccco3)o2)c1)c1ccccc1OC(F)F` [Compound 273], in assay [1], the “% inh @ 1 μM” value is recorded as 96% and at 1 µM the inhibition was 97%. Besides, the 50% inhibitory concentration (IC50) in assay [1] (setting [3]) is 120 nM. On to `O=C(Nc1cccc(-c2nnc(-c3ccco3)o2)c1)c1ccccc1OCC(F)F` [Compound 275], for which, in assay [1], the “% inh @ 1 μM” value came out at 99% and at 1 µM the inhibition was 98%. Also, the IC50 in assay [1] (setting [3]) amounted to 200 nM. In the case of `CC(C)c1cccc(C(=O)Nc2cccc(-c3nnc(-c4ccco4)o3)c2)c1` [Compound 277], in assay [1], the “% inh @ 1 μM” value is listed as 23/23% and the inhibition at 1 µM is 23%. For `COc1ccc(C(F)(F)F)cc1C(=O)Nc1cccc(-c2nnc(-c3ccco3)o2)c1` [Compound 278], in assay [1], the “% inh @ 1 μM” value was 100% and testing at 1 µM gave an inhibition of 97%. Further, the IC50 in assay [1] (setting [3]) is 120 nM. The corresponding values for `CCc1ccc(OC)c(C(=O)Nc2cccc(-c3nnc(-c4ccco4)o3)c2)c1` [Compound 280] are 100%, 94% and 120 nM. `O=C(Nc1cccc(-c2nnc(-c3ccco3)o2)c1)c1cc(Cl)ccc1OCC(F)F` [Compound 286]: the IC50 in assay [1] (setting [3]) stood at 120 nM. In the case of `O=C(Nc1cc(-c2ncc(-c3ccco3)o2)ccc1F)c1cccnc1F` [Compound 288], in assay [1], the “% inh @ 1 μM” value was found to be 59% and the inhibition at 1 µM amounted to 48%. In the case of `O=C(Nc1cc(-c2nnc(-c3cncs3)o2)ccc1F)c1ccccc1F` [Compound 290, 2-fluoro-N-(2-fluoro-5-(5-(thiazol-5-yl)-1,3,4-oxadiazol-2-yl)phenyl)benzamide], in assay [1], the “% inh @ 1 μM” value was 31% and 1 µM produced 24% inhibition. As for `O=C(Nc1cccc(-c2nnc(-c3cncs3)o2)c1)c1ccccc1F` [Compound 292], in assay [1], the “% inh @ 1 μM” value was determined as 12% and the inhibition at 1 µM came to 14%. As for `O=C(Nc1cc(Cl)cc(-c2nnc(-c3ccco3)o2)c1)c1ccccc1F` [Compound 295], the inhibition at 1 µM in assay [1] came to 37%. Turning to `O=C(Nc1cccc(-c2nnc(-c3ccco3)o2)c1)c1cccc2c1OCCC2` [Compound 296], in assay [1], the “% inh @ 1 μM” value came out at 73% and at 1 µM the inhibition was 55%. For the compound `O=C(Nc1cccc(-c2nnc(-c3ccco3)o2)c1Cl)c1ccccc1F` [Compound 297], in assay [1], the “% inh @ 1 μM” value stood at 83% and testing at 1 µM gave an inhibition of 75%. Besides, in assay [1] (setting [3]), the IC50 was 290 nM. `O=C(Nc1cccc(-c2nnc(-c3cc[nH]n3)o2)c1)c1ccccc1F` [Compound 298, N-(3-(5-(1H-pyrazol-3-yl)-1,3,4-oxadiazol-2-yl)phenyl)-2-fluorobenzamide] displayed an inhibition at 1 µM in assay [1] of 15%.

On to `O=C(Nc1cc(-c2nnc(-c3ccco3)o2)ccc1F)c1ccccc1OC(F)(F)F` [Compound 301, N-(2-Fluoro-5-(5-(furan-2-yl)-1,3,4-oxadiazol-2-yl)phenyl)-2-(trifluoromethoxy)benzamide], for which the IC50 in assay [1] (setting [3]) was 100 nM. As for `O=C(Nc1cc(-c2nnc(-c3ccco3)s2)ccc1F)c1ccccc1F` [Compound 325], the inhibition at 1 µM in assay [1] was found to be 63%. As to `O=C(Nc1cc(-c2nnc(-c3ccco3)o2)ccc1F)c1ccc2c(c1)COC2` [Compound 331], in assay [1], the inhibition at 1 µM was determined as 12%.

In assay [1], `Cc1c(C(=O)Nc2cc(-c3nnc(-c4ccco4)o3)ccc2F)cccc1[N+](=O)[O-]` [Compound 332] returned an inhibition at 1 µM of 30%. The compound `COc1ccc(C(=O)Nc2cc(-c3nnc(-c4ccco4)o3)ccc2F)cc1[N+](=O)[O-]` [Compound 333] displayed an inhibition at 1 µM in assay [1] of 18%. Consider `Cc1ccc(C(=O)Nc2cc(-c3nnc(-c4ccco4)o3)ccc2F)cc1[N+](=O)[O-]` [Compound 334], for which testing at 1 µM in assay [1] gave an inhibition of 35%. For the compound `O=C(Nc1cccc(-c2nnc(-c3ccco3)o2)c1)c1cc([N+](=O)[O-])ccc1F` [Compound 336], in assay [1], the inhibition at 1 µM was determined as 66%. As to `O=C(Nc1cccc(-c2nnc(-c3ccco3)o2)c1)c1cc([N+](=O)[O-])ccc1Cl` [Compound 337], the inhibition at 1 µM in assay [1] is 66%. Besides, the 50% inhibitory concentration (IC50) in assay [1] (setting [3]) came to 760 nM. Consider `O=C(Nc1cccc(-c2nnc(-c3ccco3)o2)c1)c1cc(F)cc([N+](=O)[O-])c1` [Compound 338], for which at 1 µM the inhibition in assay [1] was 65%. Same read-out and setting: in the case of `O=C(Nc1cccc(-c2nnc(-c3ccco3)o2)c1)c1cccc([N+](=O)[O-])c1F` [Compound 340] it was 72%.

`COc1ccc([N+](=O)[O-])cc1C(=O)Nc1cccc(-c2nnc(-c3ccco3)o2)c1` [Compound 341]: testing at 1 µM in assay [1] gave an inhibition of 73%. For the same compound, in assay [1] (setting [3]), the IC50 came out at 500 nM.

In turn, `COc1cc(C(=O)Nc2cccc(-c3nnc(-c4ccco4)o3)c2)cc([N+](=O)[O-])c1` [Compound 342] yielded an inhibition at 1 µM in assay [1] of 41%.

As for `O=C(Nc1cccc(-c2nnc(-c3ccco3)o2)c1)c1c(F)ccc([N+](=O)[O-])c1F` [Compound 344], the inhibition at 1 µM in assay [1] came to 33%.

`O=C(Nc1cccc(-c2nnc(-c3ccco3)o2)c1)c1cncc([N+](=O)[O-])c1` [Compound 345] registered an inhibition at 1 µM in assay [1] of 24%. The same measure, in the same setting: in the case of `O=C(Nc1cc(-c2nnc(-c3ccco3)o2)ccc1F)c1cc(Cl)ccc1Cl` [Compound 347] it was 94%. For the compound `COc1ccc(Cl)cc1C(=O)Nc1cc(-c2nnc(-c3cnco3)o2)ccc1F` [Compound 364], the IC50 in assay [1] (setting [3]) was 120 nM. On to `CC(C)Oc1ccc(Br)cc1C(=O)Nc1cccc(-c2nnc(-c3ccco3)o2)c1` [Compound 477], for which, in assay [1], the inhibition at 1 µM amounted to 63% and 10 µM produced 68% inhibition.

In assay [1], `CC(C)Oc1ccc(Cl)cc1C(=O)Nc1cccc(-c2nnc(-c3ccco3)o2)c1` [Compound 478] had an inhibition at 1 µM of 57% and an inhibition at 10 µM of 62%.

For the compound `COc1ccc(Cl)cc1NC(=O)c1cc(-c2nnc(-c3ccco3)o2)ccc1F` [Compound 480, N-(5-chloro-2-methoxyphenyl)-2-fluoro-5-(5-(furan-2-yl)-1,3,4-oxadiazol-2-yl)benzamide], the inhibition at 1 µM in assay [1] was found to be 96%.
